Key:
[1] = test system: C57BL6 mice fed High Fat Diet; assay: Oxygen consumption (Oxymax indirect calorimeter) in High Fat Diet fed mice; assay type: in vivo; settings: Dose 11 μM/kg intraperitoneally, day 8, % change vs vehicle; for change in vivo at 11 µM, 11 µmol/kg: Mus musculus, ip, 192 h, read-out: increase in O2 cons
Method: (§1) C57BL6 mice (14-18 weeks age), fed for 8-12 weeks with High Fat Diet (45% kcal fat) were used for the study. The mice were placed in individual housing for one week. The mice were then kept in oxymax cages for 48 h for acclimatization. Basal recordings of oxygen consumption and carbon dioxide production for each mouse were recorded with indirect open circuit calorimeter (Oxymax, Columbus Instruments, USA (Ling fu et al., Endocrinology (2004); 145 (6); 2591-3). On the basis of body weight and basal oxygen consumption, mice were randomized and divided into two groups. • I) Vehicle treated group • II) Test compound treated group
(§2) The mice were treated with vehicle and test compounds intraperitoneally for 7-15 days. On the day 8, Oxygen consumption was measured for individual mouse 30 min after the drug treatment and % change with respect to vehicle is calculated.

[2] = test system: C57BL6 mice fed High Fat Diet; assay: Heart weight in High Fat Diet fed mice; assay type: in vivo; settings: Dose 11 μM/kg intraperitoneally, end of experiment
Method: as §1, §2
(§3) During the experiment food consumption was monitored daily. At the end of the experiment the animals were scarified and the heart weights were recorded.

[3] = test system: C57BL6 mice fed High Fat Diet; assay: Food consumption in High Fat Diet fed mice; assay type: in vivo; settings: Dose 11 μM/kg intraperitoneally, 7-15 days
Method: as §1, §2, §3

THR β1 = biological target: T1, THR β1 (Homo sapiens, UniProt P10828); assay: Thyroid β1 transactivation (TRE reporter, luciferase) in COS7 cells; assay type: cell-based; settings: Conc. 20 uM, 24 hours, vs vehicle control
T1 construct: GAL4 (plasmid pGAL4); expressed in transfected cells; host or cells: COS7
T1 sequence (P10828 1-461): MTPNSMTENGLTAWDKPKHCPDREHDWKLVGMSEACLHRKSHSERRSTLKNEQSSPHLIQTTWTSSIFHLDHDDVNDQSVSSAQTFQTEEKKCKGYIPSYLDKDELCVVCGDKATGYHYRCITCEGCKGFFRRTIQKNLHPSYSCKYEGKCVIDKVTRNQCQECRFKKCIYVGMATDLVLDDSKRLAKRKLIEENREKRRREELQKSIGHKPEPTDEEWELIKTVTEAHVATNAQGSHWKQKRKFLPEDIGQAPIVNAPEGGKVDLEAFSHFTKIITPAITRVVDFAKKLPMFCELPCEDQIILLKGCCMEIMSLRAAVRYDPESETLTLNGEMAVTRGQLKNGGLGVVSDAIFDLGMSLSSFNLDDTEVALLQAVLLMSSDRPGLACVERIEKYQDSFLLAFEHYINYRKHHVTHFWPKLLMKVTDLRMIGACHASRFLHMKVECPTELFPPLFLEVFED
Method: (§4) Compounds of the present invention were tested for their effect on O2 consumption (metabolic effect), LDL cholesterol, glucose levels, insulin levels and food consumption (appetite stimulant) and also to assess transcriptional activity of thyroid hormone receptor by in vitro TRE (Thyroid receptor element) reporter assay for TRα1 and TRβ1.
(§5) COS7 cells were transiently transfected with pGAL4 […]/Thyroid α1 or pGAL4/Thyroid β1 and pLuc Pur. The cells were cotransfected with pLacZNorm for normalization of transfection efficiency. Transfected cells were then treated with different concentrations of compounds of present invention, vehicle for 24 hours.
(§6) Cells were the lysed and luciferase activity was monitored in all samples. Results were expressed as fold activation as compared to vehicle control.
(§7) Results: Thyroid(α1/β1) transactivation in COS7 cells.

THR α1 = biological target: T2, THR α1 (Homo sapiens, UniProt P10827); assay: Thyroid α1 transactivation (TRE reporter, luciferase) in COS7 cells; assay type: cell-based; settings: Conc. 20 uM, 24 hours, vs vehicle control
T2 construct: GAL4 (plasmid pGAL4); expressed in transfected cells; host or cells: COS7
T2 sequence (P10827 1-410 isoform P10827-2): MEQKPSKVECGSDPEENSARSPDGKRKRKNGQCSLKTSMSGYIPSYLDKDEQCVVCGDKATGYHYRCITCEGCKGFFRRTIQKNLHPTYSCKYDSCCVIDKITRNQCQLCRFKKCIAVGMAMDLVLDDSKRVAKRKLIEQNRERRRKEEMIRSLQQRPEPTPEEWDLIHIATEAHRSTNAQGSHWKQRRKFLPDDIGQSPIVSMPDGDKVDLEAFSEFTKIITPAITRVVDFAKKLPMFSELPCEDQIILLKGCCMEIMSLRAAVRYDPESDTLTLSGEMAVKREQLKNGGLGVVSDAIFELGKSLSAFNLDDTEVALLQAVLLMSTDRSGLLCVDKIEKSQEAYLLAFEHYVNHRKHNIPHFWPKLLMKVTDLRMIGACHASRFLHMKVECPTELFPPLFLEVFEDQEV
Method: as §4, §5, §6, §7

Row | Compound | increase in Heart weight with reference to vehicle [2] | increase in food consumption with reference to vehicle [3] | β1 Fold Activation (THR β1) [Fold] | α1 Fold Activation (THR α1) [Fold] | increase in O2 cons [1] | change in vivo at 11 µM, 11 µmol/kg [1] [%]
1 | Cc1nn(CCC(=O)O)c(C)c1Cc1ccc2[nH]ccc2c1 [Compound 2, 3-[4-(1H-Indol-5-ylmethyl)-3,5-dimethyl-pyrazol-1-yl]-propionic acid] | No change | No change | 1 | 1 | – | < 5
2 | Cc1nn(CC(=O)Nc2nnn[nH]2)c(C)c1Oc1ccc(O)c2c1CCC2 [Compound 6, 2-[4-(7-Hydroxy-indan-4-yloxy)-3,5-dimethyl-pyrazol-1-yl]-N-(1H-tetrazol-5-yl)-acetamide] | No change | No change | – | – | – | < 5
3 | Cc1cc(Cc2c(C)nn(CCC(=O)O)c2C)c2c(c1O)CCC2 [Compound 9, 3-[4-(7-Hydroxy-6-methyl-indan-4-ylmethyl)-3,5-dimethyl-pyrazol-1-yl]-propionic acid] | No change | No change | 2 | 2.5 | – | > 5
4 | CCc1nn(CCC(=O)O)c(CC)c1Cc1cc(C)c(O)c2c1CCC2 [Compound 20, 3-[3,5-Diethyl-4-(7-hydroxy-6-methyl-indan-4-ylmethyl)-pyrazol-1-yl]-propionic acid] | No change | No change | – | – | – | > 5

Now from value to compound, other results behind:

Row | increase in Heart weight with reference to vehicle [2] | increase in food consumption with reference to vehicle [3] | β1 Fold Activation (THR β1) [Fold] | α1 Fold Activation (THR α1) [Fold] | Compound | increase in O2 cons [1] | change in vivo at 11 µM, 11 µmol/kg [1] [%]
5 | No change | No change | – | – | 3-[4-(7-Hydroxy-indan-4-yloxy)-3-thiophen-2-yl-pyrazol-1-yl]-propionic acid And 3-[4-(7-Hydroxy-indan-4-yloxy)-5-thiophen-2-yl-pyrazol-1-yl]-propionic acid [Compound 7] | ** (** = Increase > 5%) | –
6 | No change | No change | 1 | 3 | 7-[1-(1H-Tetrazol-5-ylmethyl)-3-thiophen-2-yl-1H-pyrazol-4-yloxy]-indan-4-ol And 7-[1-(1H-Tetrazol-5-ylmethyl)-5-thiophen-2-yl-1H-pyrazol-4-yloxy]-indan-4-ol [Compound 8] | ** (** = Increase > 5%) | –
7 | No change | No change | 1 | 1 | Cc1nn(CCC(=O)O)c(C)c1Oc1ccc(O)c2c1CCC2 [Compound 1, 3-[4-(7-Hydroxy-indan-4-yloxy)-3,5-dimethyl-pyrazol-1-yl]-propionic acid] | – | < 5
8 | No change | No change | 1 | 1 | Cc1nn(Cc2nnn[nH]2)c(C)c1Oc1ccc(O)c2c1CCC2 [Compound 3, 7-[3,5-Dimethyl-1-(1H-tetrazol-5-ylmethyl)-1H-pyrazol-4-yloxy]-indan-4-ol] | – | > 5
9 | No change | No change | – | – | COc1c(C)cc(Cc2c(C)nn(CCC(=O)O)c2C)c2c1CCC2 [Compound 14, 3-[4-(7-Methoxy-6-methyl-indan-4-ylmethyl)-3,5-dimethyl-pyrazol-1-yl]-propionic acid] | – | < 5
10 | No change | No change | – | – | CCc1nn(CC(=O)O)c(CC)c1Cc1cc(C)c(O)c2c1CCC2 [Compound 19, [3,5-Diethyl-4-(7-hydroxy-6-methyl-indan-4-ylmethyl)-pyrazol-1-yl]-acetic acid] | – | > 5

Reference: patent US8143424B2, “Thyroid like compounds” (Torrent Pharmaceuticals Ltd., priority 2007, dated 2012)
